Data: PubChem BioAssay AID1963863 (Molecular Pharmacology Branch, DTP, NCI, 2024)

System: 931267-113-T-J1-PDC KRAS spheroid with HUVEC/MSC, viability
Experiment: Anticancer human tumor 931267-113-T-J1-PDC patient-derived colon adenocarcinoma cell line growth inhibition [KRAS2]
Conditions: for viability, T/C: stronger effect = lower value
Outline: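 Combination screen of spheroid viability in tumor-cell co-cultures with endothelial (HUVEC) and mesenchymal stem cell stroma. Each agent was tested in half-log dilutions, topping at clinical Cmax or at 10 microM without a known Cmax.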

[1] = curve of first compound, second compound 0.1 µM
[2] = curve of first compound, second compound 0.316 µM
[3] = curve of first compound, second compound 1 µM
[4] = curve of first compound, second compound 3.16 µM
[5] = curve of first compound, second compound 10 µM
[6] = second compound 0.1 µM, first compound 0.01 µM
[7] = second compound 0.1 µM, first compound 0.0316 µM
[8] = second compound 0.1 µM, first compound 0.1 µM
[9] = second compound 0.1 µM, first compound 0.316 µM
[10] = second compound 0.1 µM, first compound 1 µM
[11] = second compound 0.1 µM, first compound 3.16 µM
[12] = second compound 0.316 µM, first compound 0.01 µM
[13] = second compound 0.316 µM, first compound 0.0316 µM
[14] = second compound 0.316 µM, first compound 0.1 µM
[15] = second compound 0.316 µM, first compound 0.316 µM
[16] = second compound 0.316 µM, first compound 1 µM
[17] = second compound 0.316 µM, first compound 3.16 µM
[18] = second compound 1 µM, first compound 0.01 µM
[19] = second compound 1 µM, first compound 0.0316 µM
[20] = second compound 1 µM, first compound 0.1 µM
[21] = second compound 1 µM, first compound 0.316 µM
[22] = second compound 1 µM, first compound 1 µM
[23] = second compound 1 µM, first compound 3.16 µM
[24] = second compound 3.16 µM, first compound 0.01 µM
[25] = second compound 3.16 µM, first compound 0.0316 µM
[26] = second compound 3.16 µM, first compound 0.1 µM
[27] = second compound 3.16 µM, first compound 0.316 µM
[28] = second compound 3.16 µM, first compound 1 µM
[29] = second compound 3.16 µM, first compound 3.16 µM
[30] = second compound 10 µM, first compound 0.01 µM
[31] = second compound 10 µM, first compound 0.0316 µM
[32] = second compound 10 µM, first compound 0.1 µM
[33] = second compound 10 µM, first compound 0.316 µM
[34] = second compound 10 µM, first compound 1 µM
[35] = second compound 10 µM, first compound 3.16 µM
[36] = second compound 0.1 µM, first compound 10 µM
[37] = second compound 0.316 µM, first compound 10 µM
[38] = second compound 1 µM, first compound 10 µM
[39] = second compound 3.16 µM, first compound 10 µM
[40] = second compound 10 µM, first compound 10 µM
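Also: compound exposure lasted 7 days before the readout.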
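For viability, T/C in this document: 100% = DMSO vehicle control viability.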

CC(=O)OC12COC1CC(O)C1(C)C(=O)C(O)C3=C(C)C(OC(=O)C(O)C(NC(=O)OC(C)(C)C)c4ccccc4)CC(O)(C(OC(=O)c4ccccc4)C21)C3(C)C (centres undefined) + CC1OCC2(CCN(c3cnc(Sc4ccnc(N)c4Cl)c(N)n3)CC2)C1N
IC50 [1]: > 3160 nM
IC50 [2]: > 3160 nM
IC50 [3]: > 3160 nM
IC50 [4]: 289 nM
IC50 [5]: 278 nM
viability, T/C [6]: 88.4%
viability, T/C [7]: 90.5%
viability, T/C [8]: 74.8%
viability, T/C [9]: 80%
viability, T/C [10]: 86.2%
viability, T/C [11]: 91.4%
viability, T/C [12]: 74.8%
viability, T/C [13]: 90.5%
viability, T/C [14]: 64.9%
viability, T/C [15]: 65.4%
viability, T/C [16]: 78.6%
viability, T/C [17]: 58.5%
viability, T/C [18]: 95.2%
viability, T/C [19]: 111%
viability, T/C [20]: 108%
viability, T/C [21]: 82.8%
viability, T/C [22]: 79.5%
viability, T/C [23]: 93.2%
viability, T/C [24]: 52.3%
viability, T/C [25]: 74.3%
viability, T/C [26]: 53%
viability, T/C [27]: 50.6%
viability, T/C [28]: 48.9%
viability, T/C [29]: 49.7%
viability, T/C [30]: 59%
viability, T/C [31]: 63.4%
viability, T/C [32]: 66.8%
viability, T/C [33]: 38%
viability, T/C [34]: 50.4%
viability, T/C [35]: 56.6%

CC1(C)CCC(CN2CCN(c3ccc(C(=O)NS(=O)(=O)c4ccc(NCC5CCOCC5)c([N+](=O)[O-])c4)c(Oc4cnc5[nH]ccc5c4)c3)CC2)=C(c2ccc(Cl)cc2)C1 + C=CC(=O)N1CCN(c2nc(=O)n(-c3c(C)ccnc3C(C)C)c3nc(-c4c(O)cccc4F)c(F)cc23)C(C)C1
IC50 [1]: 2240 nM
IC50 [2]: 1820 nM
IC50 [3]: 1990 nM
IC50 [4]: 2120 nM
IC50 [5]: 1770 nM
viability, T/C [7]: 107%
viability, T/C [8]: 85%
viability, T/C [9]: 84.2%
viability, T/C [10]: 103%
viability, T/C [11]: 30.8%
viability, T/C [36]: 5.11%
viability, T/C [13]: 86.8%
viability, T/C [14]: 102%
viability, T/C [15]: 96.8%
viability, T/C [16]: 71.6%
viability, T/C [17]: 29.5%
viability, T/C [37]: 10.2%
viability, T/C [19]: 86.5%
viability, T/C [20]: 104%
viability, T/C [21]: 79.9%
viability, T/C [22]: 91.7%
viability, T/C [23]: 22.5%
viability, T/C [38]: 2.37%
viability, T/C [25]: 76.4%
viability, T/C [26]: 98%
viability, T/C [27]: 109%
viability, T/C [28]: 99%
viability, T/C [29]: 25.7%
viability, T/C [39]: 8.95%
viability, T/C [31]: 98.5%
viability, T/C [32]: 75.2%
viability, T/C [33]: 83.1%
viability, T/C [34]: 76.5%
viability, T/C [35]: 23.1%
viability, T/C [40]: 3.34%

COc1cc(Nc2ncc3c(n2)-c2ccc(Cl)cc2C(c2c(F)cccc2OC)=NC3)ccc1C(=O)O
viability, T/C (compound 0.0316 µM): 83.6% [middle of 5 runs]
viability, T/C (compound 0.1 µM): 79.6% [middle of 5 runs]
viability, T/C (compound 0.316 µM): 79.4% [middle of 5 runs]
viability, T/C (compound 1 µM): 83.3% [middle of 5 runs]
viability, T/C (compound 3.16 µM): 85.9% [middle of 5 runs]
viability, T/C (compound 10 µM): 72.5% [middle of 5 runs]
IC50 (curve of compound): > 10000 nM

CC(=O)Nc1cccc(-n2c(=O)n(C3CC3)c(=O)c3c(Nc4ccc(I)cc4F)n(C)c(=O)c(C)c32)c1
viability, T/C (compound 0.0001 µM): 92.7% [middle of 5 runs]
viability, T/C (compound 0.000316 µM): 89.7% [middle of 5 runs]
viability, T/C (compound 0.001 µM): 84.2% [middle of 5 runs]
viability, T/C (compound 0.00316 µM): 64.2% [middle of 5 runs]
viability, T/C (compound 0.01 µM): 55% [middle of 5 runs]
viability, T/C (compound 0.0316 µM): 14% [middle of 5 runs]
IC50 (curve of compound): 9.89 nM [middle of 5 runs]

Cn1ncnc1[C@H]1c2n[nH]c(=O)c3cc(F)cc(c23)N[C@@H]1c1ccc(F)cc1 + COc1cc2nc(C)nc(NC(C)c3cc(N)cc(C(F)(F)F)c3)c2cc1OC1CCOC1
IC50 [1]: > 100 nM
IC50 [2]: > 100 nM
IC50 [3]: > 100 nM
IC50 [4]: > 100 nM
IC50 [5]: < 0.316 nM
viability, T/C (second compound 0.1 µM, first compound 0.000316 µM): 103%
viability, T/C (second compound 0.1 µM, first compound 0.001 µM): 88.5%
viability, T/C (second compound 0.1 µM, first compound 0.00316 µM): 86.6%
viability, T/C [6]: 107%
viability, T/C [7]: 88.5%
viability, T/C [8]: 74.4%
viability, T/C (second compound 0.316 µM, first compound 0.000316 µM): 83.9%
viability, T/C (second compound 0.316 µM, first compound 0.001 µM): 108%
viability, T/C (second compound 0.316 µM, first compound 0.00316 µM): 83.6%
viability, T/C [12]: 96.3%
viability, T/C [13]: 92.4%
viability, T/C [14]: 77.9%
viability, T/C (second compound 1 µM, first compound 0.000316 µM): 108%
viability, T/C (second compound 1 µM, first compound 0.001 µM): 99.8%
viability, T/C (second compound 1 µM, first compound 0.00316 µM): 79.7%
viability, T/C [18]: 88.3%
viability, T/C [19]: 83.4%
viability, T/C [20]: 95.4%
viability, T/C (second compound 3.16 µM, first compound 0.000316 µM): 69.5%
viability, T/C (second compound 3.16 µM, first compound 0.001 µM): 87%
viability, T/C (second compound 3.16 µM, first compound 0.00316 µM): 61.6%
viability, T/C [24]: 67.6%
viability, T/C [25]: 63.5%
viability, T/C [26]: 52.4%
viability, T/C (second compound 10 µM, first compound 0.000316 µM): 0.8%
viability, T/C (second compound 10 µM, first compound 0.001 µM): 0.47%
viability, T/C (second compound 10 µM, first compound 0.00316 µM): 0.63%
viability, T/C [30]: 1.27%
viability, T/C [31]: 0.75%
viability, T/C [32]: 1.25%

CC1COCCN1c1cc(-c2ccnn2C)c2ccnc(-c3ccn[nH]3)c2n1 (centres undefined) + COc1cc2nc(C)nc(NC(C)c3cc(N)cc(C(F)(F)F)c3)c2cc1OC1CCOC1
IC50 [1]: 45.2 nM
IC50 [2]: 43 nM
IC50 [3]: 27.9 nM
IC50 [4]: 33.3 nM
IC50 [5]: < 10 nM
viability, T/C [6]: 75.4%
viability, T/C [7]: 61.2%
viability, T/C [8]: 25%
viability, T/C [9]: 19.5%
viability, T/C [10]: 15.1%
viability, T/C [11]: 15.2%
viability, T/C [12]: 83.4%
viability, T/C [13]: 59.3%
viability, T/C [14]: 24.5%
viability, T/C [15]: 17.8%
viability, T/C [16]: 15.4%
viability, T/C [17]: 15.3%
viability, T/C [18]: 76.3%
viability, T/C [19]: 46.6%
viability, T/C [20]: 24.1%
viability, T/C [21]: 13.6%
viability, T/C [22]: 17.7%
viability, T/C [23]: 15.9%
viability, T/C [24]: 70.4%
viability, T/C [25]: 51.6%
viability, T/C [26]: 16.2%
viability, T/C [27]: 11.2%
viability, T/C [28]: 15%
viability, T/C [29]: 14%
viability, T/C [30]: 1.71%
viability, T/C [31]: 2.62%
viability, T/C [32]: 3.95%
viability, T/C [33]: 1.66%
viability, T/C [34]: 2.29%
viability, T/C [35]: 1.1%

Cn1nccc1Nc1nccc(-c2cc3c(s2)C(C)(C)N(CCN2CCOCC2)C3=O)n1 + CC1OCC2(CCN(c3cnc(Sc4ccnc(N)c4Cl)c(N)n3)CC2)C1N
IC50 [1]: 362 nM
IC50 [2]: 317 nM
IC50 [3]: 203 nM
IC50 [4]: 218 nM
IC50 [5]: 275 nM
viability, T/C [7]: 79.4%
viability, T/C [8]: 86.3%
viability, T/C [9]: 48.3%
viability, T/C [10]: 25.2%
viability, T/C [11]: 7.4%
viability, T/C [36]: 2.95%
viability, T/C [13]: 70.6%
viability, T/C [14]: 76.3%
viability, T/C [15]: 46%
viability, T/C [16]: 22.8%
viability, T/C [17]: 4.01%
viability, T/C [37]: 2.65%
viability, T/C [19]: 72.8%
viability, T/C [20]: 55.5%
viability, T/C [21]: 47.5%
viability, T/C [22]: 18.1%
viability, T/C [23]: 4.05%
viability, T/C [38]: 2.39%
viability, T/C [25]: 76.4%
viability, T/C [26]: 60.6%
viability, T/C [27]: 45.8%
viability, T/C [28]: 8.81%
viability, T/C [29]: 4.98%
viability, T/C [39]: 2.71%
viability, T/C [31]: 72.4%
viability, T/C [32]: 71.6%
viability, T/C [33]: 47%
viability, T/C [34]: 3.56%
viability, T/C [35]: 2.05%
viability, T/C [40]: 2.15%
